Experimental data as given in US20200216906A1, “METHODS AND COMPOSITIONS RELATING TO THE DIAGNOSIS AND TREATMENT OF CANCER” (PRESIDENT AND FELLOWS OF HARVARD COLLEGE, priority 2015, published 2020).
“Also recorded” adds a separate entry of the source. Like-named read-outs stand apart in the source and are kept apart here. One block for each compound: values may come before it. Starred links: 1 amine or outer side, 2 acyl side, 3 side chain; linkers in the order of their positions; H or OH if unused. Positions of bridges follow the written chain, without caps; N, C: chain ends. Non-standard residues stand in square brackets, D forms with d. Residues, ends and D or L forms follow the SMILES beside them. Chains are numbered I, II in the order given. Actinocin(9to1) = Cc1c2oc3c(C)ccc(C(=O)[*:1])c3nc-2c(C(=O)[*:2])c(N)c1=O; NMeV = CN[C@H](C(=O)O)C(C)C; Sar = CNCC(=O)O

Legend:
[1] = tested on: Panc02.13 cells expressing the YAPS6A mutant; assay: 3D spheroid growth assay, Panc02.13 cells expressing YAPS6A; assay type: cell-based, human; settings: YAP activity increased
[2] = tested on: Panc02.13 cells; assay: 3D spheroid growth assay, Panc02.13 (GFP/parental) cells; settings: for Efficacy in inhibiting cell growth when the Hippo pathway was not inhibited: Hippo-YAP pathway active; for Inhibition in high density growth conditions: 3D-spheroid screen
[3] = tested on: Panc02.13 cells expressing vector only (02.13-WT); assay: Kinetic cell growth assay, Panc02.13 cells expressing vector only; assay type: cell-based, human
Procedure: (§1) Panc02.13 cells were used to express YAPS6A (or vector controls) under sparse and dense cultures. Expression was confirmed by confocal microscopy (data not shown). Suppression of the Hippo pathway by expression of non-phospho, active form of YAP (YAPS6A) sensitized pancreatic cancer cells to gemcitabine and 5-FU (FIGS. 6 and 7). Apoptosis was measured by immunobloting with cleaved caspases 3/7 or PARP. Blots were also stained with anti-β-actin for loading control. The effect of Hippo pathway suppression on gemcitabine and 5-FU senstitization was maintained in 3D spheroid culture (FIG. 8). The effects of eleven cytotoxic drugs on the growth of Panc02.13 cells expressing vector only or YAPS6A construct grown under low or high densities were determined (Table 1).
(§2) The effect of gemcitabine on pancreatic cancer cell growth was studied using a kinetic cell growth assay. Pancreatic cancer cells were plated on 96-well plates (Essen ImageLock, Essen Instruments, MI, US) at varying densities (2-4×10^3 for low density or 15-20×10^3 for high density experiments). Small molecule inhibitors at different doses were added 24 hours after plating and cell confluence was monitored with Incucyte Live-Cell Imaging System and software (Essen Instruments). Confluence was observed every hour for 48-144h or until the control (DMSO only) samples reached 100% confluence.
as §2, with “Kinetic Cell growth assay. The” for “The”, “(2-4X103” for “(2-4×10^3”, “15-20X103” for “15-20×10^3”, “Incucyte™” for “Incucyte”

[4] = tested on: pancreatic cancer cell lines; assay: Kinetic cell growth assay, panel of pancreatic cancer cell lines; assay type: cell-based, human; settings: for Dependence of cellular response on cell crowding: seven PDAC cell lines, threshold >100 fold difference in EC50; for Density dependence of efficacy: seven pancreatic cancer cell lines, sparse and dense conditions
Procedure: as §2
FIG. 20A illustrates the kinetic cell growth assay to determine the effect of gemcitabine in a panel of pancreatic cancer cell lines. Cells are plated at low crowding conditions (10-25% confluence) and 24 hours later exposed to gemcitabine in a dose-dependent manner. They are imaged every 1-3 hours until control (vehicle) treated cells reach 100% confluence. This assay is not confounded by the fact that the time required for each cell line to reach 100% confluence may be very different (as the cell lines have different doubling times). A dose response effect of gemcitabine on cell growth for 16 pancreatic cancer cell lines is shown in FIGS. 20B, 3, 31A-31C and 28, where the range of previous studies is also shown. […] Similar responses to gemcitabine were found in liver cancer cell lines (Huh7 and FOCUS) and untransformed (HEK293) cell lines (FIGS. 3, 31A-31C).
as §2, with “Kinetic Cell growth assay. The” for “The”, “(2-4X103” for “(2-4×10^3”, “15-20X103” for “15-20×10^3”, “Incucyte™” for “Incucyte”

[5] = tested on: Panc02.13 cells expressing YAPS6A construct; assay: Kinetic cell growth assay, Panc02.13 cells expressing YAPS6A; assay type: cell-based, human; settings: for EC50: YAPS6A construct
Procedure: as §1, §2
Cell lines (Panc02.13, Panc10.05 or Miapaca2) were transfected with YAPS6A constructs (Addgene) using Lipofectamine™ (Invitrogen, Carlsbad, Calif.) following the manufacturer's instructions and 48 hour post-transfection selected in 5-10 μg/ml Blasticidin (InvivoGen, San Diego, Calif.). The clones screened for YAPS6A expression by Western blot. Stable cell lines were maintained in complete medium and 5 μg/ml Blasticidin.
as §2, with “Kinetic Cell growth assay. The” for “The”, “(2-4X103” for “(2-4×10^3”, “15-20X103” for “15-20×10^3”, “Incucyte™” for “Incucyte”

[6] = high density, read-out: High density (EC50, nM) 02.13-WT
[7] = low density, read-out: Low density (EC50, nM) 02.13-WT
[8] = high density, read-out: High density (EC50, nM) 02.13-YAPS6A
[9] = low density, read-out: Low density (EC50, nM) 02.13-YAPS6A
[10] = Homo sapiens, high density, read-out: High density (EC50, nM) 02.13-WT
[11] = Homo sapiens, low density, read-out: Low density (EC50, nM) 02.13-WT
[12] = Homo sapiens, high density, read-out: High density (EC50, nM) 02.13-YAPS6A
[13] = Homo sapiens, low density, read-out: Low density (EC50, nM) 02.13-YAPS6A

Compound: Nc1ccn([C@@H]2O[C@H](CO)[C@@H](O)[C@@H]2O)c(=O)n1 [cytarabine]
Efficacy in inhibiting cell growth when the Hippo pathway was inhibited [1]: increased efficacy in inhibiting cell growth

Compound: COC(=O)C[C@](O)(CCCC(C)(C)O)C(=O)O[C@@H]1C(OC)=C[C@]23CCCN2CCc2cc4c(cc2[C@H]13)OCO4 [omacetaxine mepesuccinate]
Efficacy in inhibiting cell growth when the Hippo pathway was not inhibited [2]: effective in preventing cancer cell growth independent of the state of Hippo-YAP signaling pathway activity; also recorded: efficacious in inhibiting cell growth

Compound: O=C1[O][Pt]2([NH][C@@H]3CCCC[C@H]3[NH]2)[O]C1=O [Oxaliplatin]
EC50 [3, 6]: 5200 nM | EC50 [3, 7]: 937 nM | Dependence of cellular response on cell crowding [4]: weak or no correlation with cell density | Density dependence of efficacy [4]: largely density independent | EC50 [5, 8]: 3180 nM | EC50 [5, 9]: 5890 nM

Compound: Nc1nc(Cl)nc2c1ncn2[C@@H]1O[C@H](CO)[C@@H](O)[C@@H]1F [clofarabine]
Efficacy in inhibiting cell growth when the Hippo pathway was inhibited [1]: increased efficacy in inhibiting cell growth

Compound: COc1cccc2c1C(=O)c1c(O)c3c(c(O)c1C2=O)C[C@@](O)(C(C)=O)C[C@@H]3O[C@H]1C[C@H](N)[C@H](O)[C@H](C)O1 [daunorubicin]
Efficacy in inhibiting cell growth when the Hippo pathway was not inhibited [2]: efficacious in inhibiting cell growth | Efficacy in inhibiting cell growth when the Hippo pathway was inhibited [1]: increased efficacy in inhibiting cell growth

Compound: Cc1c2oc3c(C)ccc(C(=O)N[C@@H]4C(=O)N[C@H](C(C)C)C(=O)N5CCC[C@H]5C(=O)N(C)CC(=O)N(C)[C@@H](C(C)C)C(=O)O[C@@H]4C)c3nc-2c(C(=O)N[C@@H]2C(=O)N[C@H](C(C)C)C(=O)N3CCC[C@H]3C(=O)N(C)CC(=O)N(C)[C@@H](C(C)C)C(=O)O[C@@H]2C)c(N)c1=O [dactinomycin] (I: T[dV]P[Sar][NMeV] / II: T[dV]P[Sar][NMeV]; ester I:1-I:C, II:1-II:C; linker I:N-II:N via Actinocin(9to1))
Inhibition in high density growth conditions [2]: significant inhibition | Efficacy in inhibiting cell growth when the Hippo pathway was not inhibited [2]: effective in preventing cancer cell growth independent of the state of Hippo-YAP signaling pathway activity; also recorded: efficacious in inhibiting cell growth

Compound: Nc1nc2nc[nH]c2c(=S)[nH]1 [tioguanine]
Efficacy in inhibiting cell growth when the Hippo pathway was inhibited [1]: increased efficacy in inhibiting cell growth

EC50 [3, 6]: 8500 nM | EC50 [3, 7]: 1070 nM | EC50 [5, 8]: 1650 nM | EC50 [5, 9]: 1700 nM
Compound: CCc1c2c(nc3ccc(OC(=O)N4CCC(N5CCCCC5)CC4)cc13)-c1cc3c(c(=O)n1C2)COC(=O)[C@]3(O)CC [Irrenotecan]
Efficacy in inhibiting cell growth when the Hippo pathway was inhibited [1]: increased efficacy in inhibiting cell growth; also recorded: particularly significant inhibitory activity

Compound: Cc1ccc(NC(=O)c2ccc(CN3CCN(C)CC3)cc2)cc1Nc1nccc(-c2cccnc2)n1 [imatinib]
Efficacy in inhibiting cell growth when the Hippo pathway was inhibited [1]: increased efficacy in inhibiting cell growth

Compound: CO[C@H]1C[C@@H]2CC[C@@H](C)[C@@](O)(O2)C(=O)C(=O)N2CCCC[C@H]2C(=O)O[C@H]([C@H](C)C[C@@H]2CC[C@@H](OCCO)[C@H](OC)C2)CC(=O)[C@H](C)/C=C(\C)[C@@H](O)[C@@H](OC)C(=O)[C@H](C)C[C@H](C)/C=C/C=C/C=C/1C [Everolimus]
Efficacy in inhibiting cell growth when the Hippo pathway was not inhibited [2]: demonstrated efficacy at higher doses

Compound: CCCCC(=O)OCC(=O)[C@]1(O)Cc2c(O)c3c(c(O)c2[C@@H](O[C@H]2C[C@H](NC(=O)C(F)(F)F)[C@H](O)[C@H](C)O2)C1)C(=O)c1c(OC)cccc1C3=O [valrubicin]
Efficacy in inhibiting cell growth when the Hippo pathway was not inhibited [2]: efficacious in inhibiting cell growth | Efficacy in inhibiting cell growth when the Hippo pathway was inhibited [1]: increased efficacy in inhibiting cell growth

EC50 [3, 10]: 2400 nM | EC50 [3, 11]: 3.5 nM | EC50 [5, 12]: 4820 nM | EC50 [5, 13]: 7 nM
Compound: CC(=O)O[C@@]12CO[C@@H]1C[C@H](O)[C@@]1(C)C(=O)[C@H](O)C3=C(C)[C@@H](OC(=O)[C@H](O)[C@@H](NC(=O)OC(C)(C)C)c4ccccc4)C[C@@](O)([C@@H](OC(=O)c4ccccc4)[C@H]21)C3(C)C [Docetaxel]
Dependence of cellular response on cell crowding [4]: weak or no correlation with cell density | Density dependence of efficacy [4]: largely density independent

EC50 [3, 10]: > 10000 nM | EC50 [3, 11]: 350 nM | EC50 [5, 12]: 3000 nM
Compound: O=c1[nH]cc(F)c(=O)[nH]1 [5-FU, 5-fluorouracil]
Efficacy in inhibiting cell growth when the Hippo pathway was inhibited [1]: increased efficacy in inhibiting cell growth | Sensitization by expression of YAPS6A ([5]; suppression of the Hippo pathway, high cell density): sensitized

Compound: C/C(=C\c1csc(C)n1)[C@@H]1C[C@@H]2O[C@]2(C)CCC[C@H](C)[C@H](O)[C@@H](C)C(=O)C(C)(C)[C@@H](O)CC(=O)N1 [ixabepilone]
Efficacy in inhibiting cell growth when the Hippo pathway was inhibited [1]: increased efficacy in inhibiting cell growth

Compound: C1CN1c1nc(N2CC2)nc(N2CC2)n1 [triethylenemelamine]
Efficacy in inhibiting cell growth when the Hippo pathway was not inhibited [2]: demonstrated efficacy at higher doses

Compound: Epothilone
EC50 [3, 6]: 20 nM | EC50 [3, 7]: < 1 nM | EC50 [5, 8]: 767 nM | EC50 [5, 9]: < 1 nM

Compound: CC(C)C[C@H](NC(=O)[C@H](CCc1ccccc1)NC(=O)CN1CCOCC1)C(=O)N[C@@H](Cc1ccccc1)C(=O)N[C@@H](CC(C)C)C(=O)[C@@]1(C)CO1 [carfilzomib]
Inhibition in high density growth conditions [2]: significant inhibition | Efficacy in inhibiting cell growth when the Hippo pathway was not inhibited [2]: effective in preventing cancer cell growth independent of the state of Hippo-YAP signaling pathway activity; also recorded: efficacious in inhibiting cell growth

Compound: CNC(=O)c1ccc(N2C(=S)N(c3ccc(C#N)c(C(F)(F)F)c3)C(=O)C2(C)C)cc1F [enzalutamide]
Efficacy in inhibiting cell growth when the Hippo pathway was not inhibited [2]: effective in preventing cancer cell growth independent of the state of Hippo-YAP signaling pathway activity; also recorded: efficacious in inhibiting cell growth

Compound: CC[C@@]1(O)C(=O)OCc2c1cc1n(c2=O)Cc2cc3ccccc3nc2-1 [Camtothecin, Camptothecin]
EC50 [3, 10]: 15 nM | EC50 [3, 11]: 5.2 nM | Efficacy in inhibiting cell growth when the Hippo pathway was inhibited [1]: increased efficacy in inhibiting cell growth | Dependence of cellular response on cell crowding [4]: weak or no correlation with cell density | Density dependence of efficacy [4]: density-dependent | EC50 [5, 12]: 9 nM | EC50 [5, 13]: 6 nM

EC50 [3, 10]: 1670 nM | EC50 [3, 11]: 3 nM | EC50 [5, 13]: 3 nM
Compound: CC(=O)O[C@H]1C(=O)[C@@]2(C)[C@H]([C@H](OC(=O)c3ccccc3)[C@]3(O)C[C@H](OC(=O)[C@H](O)[C@@H](NC(=O)c4ccccc4)c4ccccc4)C(C)=C1C3(C)C)[C@]1(OC(C)=O)CO[C@@H]1C[C@@H]2O [Paclitaxel]
Dependence of cellular response on cell crowding [4]: weak or no correlation with cell density | Density dependence of efficacy [4]: largely density independent

Compound: CC(C)C[C@H](NC(=O)[C@H](Cc1ccccc1)NC(=O)c1cnccn1)B(O)O [bortezomib]
Efficacy in inhibiting cell growth when the Hippo pathway was not inhibited [2]: effective in preventing cancer cell growth independent of the state of Hippo-YAP signaling pathway activity; also recorded: efficacious in inhibiting cell growth

Compound: CO[C@@]12[C@H](COC(N)=O)C3=C(C(=O)C(C)=C(N)C3=O)N1C[C@@H]1N[C@@H]12 [mitomycin]
Efficacy in inhibiting cell growth when the Hippo pathway was inhibited [1]: increased efficacy in inhibiting cell growth

Compound: S=c1nc[nH]c2nc[nH]c12 [mercaptopurine]
Efficacy in inhibiting cell growth when the Hippo pathway was inhibited [1]: increased efficacy in inhibiting cell growth
